Results published in patent US7906522B2, “2-aminoquinazoline derivatives” (Kyowa Hakko Kirin Co., Ltd, priority 2005, dated 2011).

Legend:
[1] = molecular target: T1, Activated human p38α (Homo sapiens, UniProt Q16539); assay: p38MAP kinase inhibition test; type: biochemical; conditions: at a concentration of 1 μmol/L; substrate myelin basic protein, ATP 20 μmol/L, [γ-32P]ATP; read-out: enzyme inhibitory activity
T1 construct: purchased Upstate Biotechnology Inc. 14-251
Procedure, shortened: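 Phosphorylation of myelin basic protein (20 μg/assay) by the kinase measured via [γ-32P]ATP incorporation at 20 μmol/L ATP, pH 7.2 MOPS buffer, 30° C. for 15 min. Labelled substrate bound to P81 paper, washed, and quantified by scintillation counting; compounds added in DMSO.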

T1 sequence (Q16539 whole entry): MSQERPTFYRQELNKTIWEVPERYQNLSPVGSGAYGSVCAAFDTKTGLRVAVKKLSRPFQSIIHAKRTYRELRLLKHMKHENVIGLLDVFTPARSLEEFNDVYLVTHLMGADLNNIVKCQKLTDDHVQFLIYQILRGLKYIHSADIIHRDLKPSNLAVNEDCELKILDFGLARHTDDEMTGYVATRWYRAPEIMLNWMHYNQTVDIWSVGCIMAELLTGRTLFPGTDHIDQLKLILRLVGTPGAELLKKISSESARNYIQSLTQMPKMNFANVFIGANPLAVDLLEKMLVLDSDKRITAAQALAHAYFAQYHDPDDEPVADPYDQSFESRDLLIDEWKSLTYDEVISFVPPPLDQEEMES

Row | inhibition at 1 µM [1] | melting point | Compound
1 | ≥ 50% | 220 to 222 °C | Cc1ccccc1-c1cc2cnc(Nc3c(C)cccc3C)nc2cc1O [Compound 175, 2-(2,6-Dimethylanilino)-7-hydroxy-6-(2-methylphenyl)quinazoline]
2 | ≥ 50% | 217 to 218 °C | Cc1ccc(C(=O)Nc2cccc(N(C)C)c2)cc1-c1cc2cnc(NC(C)C)nc2cc1O [Compound 324, 6-{5-[(3-Dimethylaminophenyl)carbamoyl]-2-methylphenyl}-7-hydroxy-2-(isopropylamino)quinazoline]
3 | ≥ 50% | 226 to 227 °C | Cc1ccccc1-c1cc2cnc(Nc3c(Cl)cccc3Cl)nc2cc1O [Compound 176, 2-(2,6-Dichloroanilino)-7-hydroxy-6-(2-methylphenyl)quinazoline]
4 | ≥ 50% | 165 °C | CC[C@H](C)Nc1ncc2cc(-c3ccccc3C)c(O)cc2n1 [Compound 169, (S)-2-(sec-Butylamino)-7-hydroxy-6-(2-methylphenyl)quinazoline]
5 | ≥ 50% | 130 to 133 °C | CCc1cccc(C)c1Nc1ncc2cc(-c3ccccc3C)c(O)cc2n1 [Compound 180, 2-(2-Ethyl-6-methylanilino)-7-hydroxy-6-(2-methylphenyl)quinazoline]
6 | ≥ 50% | 251 to 253 °C | CCS(=O)(=O)N1CCC(Nc2ncc3cc(-c4ccccc4Cl)c(O)cc3n2)CC1 [Compound 161, 6-(2-Chlorophenyl)-2-[1-(ethylsulfonyl)piperidin-4-ylamino]-7-hydroxyquinazoline]
7 | ≥ 50% | 173 to 175 °C | CC[C@H](C)Nc1ncc2cc(-c3ccccc3Cl)c(O)cc2n1 [Compound 163, (S)-2-(sec-Butylamino)-6-(2-chlorophenyl)-7-hydroxyquinazoline]
8 | ≥ 50% | 158 °C | Cc1ccccc1-c1cc2cnc(NC3CCCCC3)nc2cc1O [Compound 171, 2-(Cyclohexylamino)-7-hydroxy-6-(2-methylphenyl)quinazoline]
9 | ≥ 50% | 248 to 249 °C | CC(C)Nc1ncc2cc(-c3cccc(C(=O)Nc4cccc(N5CCOCC5)c4)c3)c(O)cc2n1 [Compound 328, 7-Hydroxy-2-isopropylamino-6-{3-[(3-morpholinophenyl)carbamoyl]phenyl}quinazoline]
10 | ≥ 50% | 251 to 253 °C | CC(C)Nc1ncc2cc(-c3cccc(C(=O)Nc4cccc(N5CCCC5)c4)c3)c(O)cc2n1 [Compound 330, 7-Hydroxy-2-isopropylamino-6-{3-[3-(pyrrolidin-1-yl)phenylcarbamoyl]phenyl}quinazoline]
11 | ≥ 50% | 190 to 193 °C | Cc1ccc(C(=O)NC2CC2)cc1-c1cc2cnc(Nc3c(Cl)cccc3Cl)nc2cc1O [Compound 319, 6-(5-Cyclopropylcarbamoyl-2-methylphenyl)-2-(2,6-dichloroanilino)-7-hydroxyquinazoline]
12 | ≥ 50% | 217 to 219 °C | CC(C)Nc1ncc2cc(-c3cccc(NC(=O)c4cc(F)cc(N5CCOCC5)c4)c3)c(O)cc2n1 [Compound 332, 6-[3-(3-Fluoro-5-morpholinobenzoylamino)phenyl]-7-hydroxy-2-(isopropylamino)quinazoline]
13 | ≥ 50% | 210 °C | CCC(CC)Nc1ncc2cc(-c3cc(C(=O)NC4CC4)ccc3C)c(O)cc2n1 [Compound 365, 6-(5-Cyclopropylcarbamoyl-2-methylphenyl)-2-(3-pentylamino)-7-hydroxyquinazoline]
14 | ≥ 50% | 226 to 227 °C | CC(C)Nc1ncc2cc(-c3cccc(NC(=O)c4ccnc(N5CCCCC5)c4)c3)c(O)cc2n1 [Compound 349, 7-Hydroxy-2-isopropylamino-6-{3-[(2-piperidinopyridin-4-yl)carbonylamino]phenyl}quinazoline]
15 | ≥ 50% | 156 to 160 °C | Cc1ccc(C(=O)NC2CC2)cc1-c1cc2cnc(NC(C)C)nc2cc1O [Compound 322, 6-(5-Cyclopropylcarbamoyl-2-methylphenyl)-7-hydroxy-2-(isopropylamino)quinazoline]
16 | ≥ 50% | 173 to 175 °C | Cc1ccc(-n2nc(C)cc2NC(=O)c2ccc(C)c(-c3cc4cnc(NC(C)C)nc4cc3O)c2)cc1 [Compound 357, 7-Hydroxy-2-isopropylamino-6-{2-methyl-5-[5-methyl-2-(4-methylphenyl)-2H-pyrazol-3-ylcarbamoyl]phenyl}quinazoline]
17 | ≥ 50% | 268 to 271 °C | CS(=O)(=O)N1CCC(Nc2ncc3cc(-c4ccccc4Cl)c(O)cc3n2)CC1 [Compound 156, 6-(2-Chlorophenyl)-7-hydroxy-2-[1-(methylsulfonyl)piperidin-4-ylamino]quinazoline]
18 | ≥ 50% | 234 to 236 °C | Cc1ccccc1-c1cc2cnc(Nc3ccccc3)nc2cc1O [Compound 178, 2-Anilino-7-hydroxy-6-(2-methylphenyl)quinazoline]
19 | ≥ 50% | 198 to 200 °C | CCC(CC)Nc1ncc2cc(-c3ccccc3C)c(O)cc2n1 [Compound 170, 2-(3-Pentylamino)-7-hydroxy-6-(2-methylphenyl)quinazoline]
20 | ≥ 50% | 210 to 213 °C | Cc1ccc(C(=O)NC2CC2)cc1-c1cc2cnc(Nc3c(C)cccc3C)nc2cc1O [Compound 317, 6-(5-Cyclopropylcarbamoyl-2-methylphenyl)-2-(2,6-dimethylanilino)-7-hydroxyquinazoline]
21 | ≥ 50% | 280 to 281 °C | COc1ccc(C(F)(F)F)cc1NC(=O)c1ccc(C)c(-c2cc3cnc(NC(C)C)nc3cc2O)c1 [Compound 338, 7-Hydroxy-2-isopropylamino-6-{5-[(2-methoxy-5-trifluoromethylphenyl)carbamoyl]-2-methylphenyl}quinazoline]
22 | ≥ 50% | 158 to 161 °C | CONC(=O)c1ccc(C)c(-c2cc3cnc(NC(C)C)nc3cc2O)c1 [Compound 353, 7-Hydroxy-2-isopropylamino-6-(5-methoxycarbamoyl-2-methylphenyl)quinazoline]
23 | ≥ 50% | 243 to 245 °C | CC(C)Nc1ncc2cc(-c3cccc(NC(=O)c4ccnc(-c5ccc(F)cc5)c4)c3)c(O)cc2n1 [Compound 355, 6-{3-[2-(4-Fluorophenyl)pyridin-4-ylcarbonylamino]phenyl}-7-hydroxy-2-(isopropylamino)quinazoline]
24 | ≥ 50% | 250 °C (dec.) | CC(C)Nc1ncc2cc(-c3cccc(C(=O)NC4CC4)c3)c(O)cc2n1 [Compound 334, 6-[3-(Cyclopropylcarbamoyl)phenyl]-7-hydroxy-2-(isopropylamino)quinazoline]
25 | ≥ 50% | 153 °C | CC[C@H](C)Nc1ncc2cc(-c3cc(C(=O)NC4CC4)ccc3C)c(O)cc2n1 [Compound 361, (S)-2-(sec-Butylamino)-6-(5-cyclopropylcarbamoyl-2-methylphenyl)-7-hydroxyquinazoline]
